The values below are quoted from earlier work in Sander's compilation of Henry's law constants (doi:10.1093/bja/45.3.282).

The series is described as follows: Henry solubility constant Hcp at 310 K (mol/(m3 Pa)). As to conditions: reference: Steward et al. (1973); cited value.
On to `FC(F)(F)C(Cl)Br` (centres undefined) [1-bromo-1-chloro-2,2,2-trifluoroethane], for which the “Henry solubility constant Hcp at 310 K” value is 0.00031.
`[N-]=[N+]=O` [dinitrogen monoxide]: the “Henry solubility constant Hcp at 310 K” value was 0.00018.
Consider `C=COC=C` [divinyl ether], for which the “Henry solubility constant Hcp at 310 K” value was 0.00054.
As to `FC(F)OC(F)(F)C(F)Cl` (centres undefined) [2-chloro-1,1,2-trifluoroethyl difluoromethyl ether], the “Henry solubility constant Hcp at 310 K” value is 0.0003.
In the case of `COC(F)(F)C(Cl)Cl` [2,2-dichloro-1,1-difluoro-1-methoxyethane], the “Henry solubility constant Hcp at 310 K” value is 0.0017.
For the compound `[Kr]` [krypton], the “Henry solubility constant Hcp at 310 K” value is 2e-05.
On to `[Xe]` [xenon], for which the “Henry solubility constant Hcp at 310 K” value was 3.3e-05.
`CCOCC` [diethyl ether]: the “Henry solubility constant Hcp at 310 K” value is 0.005.
In the case of `CCCl` [chloroethane], the “Henry solubility constant Hcp at 310 K” value was 0.00047.
For the compound `FC(F)OC(Cl)C(F)(F)F` (centres undefined) [1-chloro-2,2,2-trifluoroethyl difluoromethyl ether], the “Henry solubility constant Hcp at 310 K” value was 0.00024.
For the compound `C=COCC(F)(F)F` [(2,2,2-trifluoroethoxy)-ethene], the “Henry solubility constant Hcp at 310 K” value was 0.00033.
As to `C1CC1` [cyclopropane], the “Henry solubility constant Hcp at 310 K” value was 8.1e-05.
In the case of `ClC=C(Cl)Cl` [trichloroethene], the “Henry solubility constant Hcp at 310 K” value was 0.00066.
On to `C=C` [ethene], for which the “Henry solubility constant Hcp at 310 K” value was 3.5e-05.
